Reference: patent US20050208496A1, “Methods of testing for bronchial asthma or chronic obstructive pulmonary disease” (Genox Research, Inc., priority 2002, published 2005)
Where two headings read alike, the source gives them in different places.

Test system: respiratory epithelial cells

Substance: IL-13: human IL-13 (Peprotech, Inc.) added to the medium at 50 ng/mL to stimulate respiratory epithelial cells
- PR01489 57777_at expression change (lot 1 Day 3 AI): −2.1
- PSCA (63958_at) expression change (lot 1 Day 3 AI): −9.8
- RAC2 32737_at expression change (lot 1 Day 3 AI): −4.3
- RGC32 (57044_s_at) expression change (lot 1 Day 3 AI): −2.7
- SCYB14 (65823_at) expression change (lot 1 Day 3 AI): −4.1
- SEMA4B (46709_at) expression change (lot 1 Day 3 AI): −2.8
- SERPINA3 (75248_at) expression change (lot 1 Day 3 AI): −4.8
- SLC34A2 (48048_at) expression change (lot 1 Day 3 AI): −2.8
- STEAP 40297_at expression change (lot 1 Day 3 AI): −2.2
- TCF8 33439_at expression change (lot 1 Day 3 AI): −2.5
- TGFBI (68339_at) expression change (lot 1 Day 3 AI): −2.9
- TNRC3 41246_at expression change (lot 1 Day 3 AI): −2.9
- TPM1 36790_at expression change (lot 1 Day 3 AI): −2.9
- TPM1 36791_g_at expression change (lot 1 Day 3 AI): −2.5
- TPM1 36792_at expression change (lot 1 Day 3 AI): −2.6
- UGB 39220_at expression change (lot 1 Day 3 AI): −6
- VIM 34091_s_at expression change (lot 1 Day 3 AI): −3.4
- W72331 49486 at expression change (lot 1 Day 3 AI): −8
- AA045020 (44676_at) expression change (lot 1 Day 3 IMM): −3.4
- AA059445 46293_at expression change (lot 1 Day 3 IMM): −3.9
- AA059458 (65626_at) expression change (lot 1 Day 3 IMM): −4.5
- AA456099 (59567_at) expression change (lot 1 Day 3 IMM): −2
- AI050855 (64285_at) expression change (lot 1 Day 3 IMM): −2.6
- AI468340 (72604_at) expression change (lot 1 Day 3 IMM): −2.2
- AI984780 (52384_s_at) expression change (lot 1 Day 3 IMM): −2.8
- AQP5 32909_at expression change (lot 1 Day 3 IMM): −3.1
- AW025596 52637_g_at expression change (lot 1 Day 3 IMM): −3.1
- COL12A1 (44730_at) expression change (lot 1 Day 3 IMM): −2.9
- DSC3a, b 47119_at expression change (lot 1 Day 3 IMM): −2.6
- HIN-1 (46200_at) expression change (lot 1 Day 3 IMM): −3.1
- IVL 36355_at expression change (lot 1 Day 3 IMM): −8.4
- KIAA1376 (62972_at) expression change (lot 1 Day 3 IMM): −2.5
- KLF7 34216_at expression change (lot 1 Day 3 IMM): −3.3
- KRT6B (62998_at) expression change (lot 1 Day 3 IMM): −3.5
- LCE 45605_at expression change (lot 1 Day 3 IMM): −2.1
- LOC51297 (49616_at) expression change (lot 1 Day 3 IMM): −4
- LOC51297 (55440_at) expression change (lot 1 Day 3 IMM): −10.5
- LOC51297 (55442_g_at) expression change (lot 1 Day 3 IMM): −4.9
- LOC55893 (64071_at) expression change (lot 1 Day 3 IMM): −2
- LOC129642 (42065_at) expression change (lot 1 Day 3 IMM): −2
- MGC12536 46924_at expression change (lot 1 Day 3 IMM): −2.1
- MGC14128 (51669_r_at) expression change (lot 1 Day 3 IMM): −2.2
- MGC14597 (46030_at) expression change (lot 1 Day 3 IMM): −3.1
- MGC16207 (65876_at) expression change (lot 1 Day 3 IMM): −4.5
- N71183 52473_at expression change (lot 1 Day 3 IMM): −2.4
- PR01489 57777_at expression change (lot 1 Day 3 IMM): −3.4
- RAC2 32737_at expression change (lot 1 Day 3 IMM): −3.5
- SLC11A3 (45826_at) expression change (lot 1 Day 3 IMM): −2.3
- STEAP 40297_at expression change (lot 1 Day 3 IMM): −2.3
- TCF8 33439_at expression change (lot 1 Day 3 IMM): −2.7
- TPM1 36791_g_at expression change (lot 1 Day 3 IMM): −2.2
- UCP2 37591_at expression change (lot 1 Day 3 IMM): −2.3
- UGB 39220_at expression change (lot 1 Day 3 IMM): −4
- VIM 34091_s_at expression change (lot 1 Day 3 IMM): −3.2
- W72331 49486 at expression change (lot 1 Day 3 IMM): −3.2
- AA045020 (44676_at) expression change (lot 2, Day 3, AI): −5.7
- AA059445 46293_at expression change (lot 2, Day 3, AI): −4.5
- AA059458 (65626_at) expression change (lot 2, Day 3, AI): −5.8
- AA079839 (69289_at) expression change (lot 2, Day 3, AI): −2
- AA160156 (47578_at) expression change (lot 2, Day 3, AI): −2.3
- AA369887 (87539_i_at) expression change (lot 2, Day 3, AI): −3.4
- AA456099 (59567_at) expression change (lot 2, Day 3, AI): −2.1
- AA772055 46104_at expression change (lot 2, Day 3, AI): −2.7
- AA779895 59136_at expression change (lot 2, Day 3, AI): −3.2
- AF052107 38262_at expression change (lot 2, Day 3, AI): −3.8
- AI050855 (64285_at) expression change (lot 2, Day 3, AI): −2.9
- AI264299 (84903_f_at) expression change (lot 2, Day 3, AI): −10.4
- AI432375 (49819_at) expression change (lot 2, Day 3, AI): −2.6
- AI468340 (72604_at) expression change (lot 2, Day 3, AI): −2.4
- AI669212 55436_at expression change (lot 2, Day 3, AI): −3.7
- AI740855 (83076_at) expression change (lot 2, Day 3, AI): −2.7
- AI760772 (58528_s_at) expression change (lot 2, Day 3, AI): −2
- AI770116 (70124_at) expression change (lot 2, Day 3, AI): −2.6
- AI798733 (64163_at) expression change (lot 2, Day 3, AI): −2.3
- AI829641 (84270_at) expression change (lot 2, Day 3, AI): −24.1
- AI917602 (49985_at) expression change (lot 2, Day 3, AI): −2.4
- AI948584 48086_at expression change (lot 2, Day 3, AI): −15.6
- AI984780 (52384_s_at) expression change (lot 2, Day 3, AI): −5.3
- AQP5 32909_at expression change (lot 2, Day 3, AI): −5.1
- AW022213 (79520_at) expression change (lot 2, Day 3, AI): −2.9
- AW025596 52634_at expression change (lot 2, Day 3, AI): −2
- AW025596 52637_g_at expression change (lot 2, Day 3, AI): −7.5
- B4GALT5 56373_at expression change (lot 2, Day 3, AI): −2.2
- BARX2 35425_at expression change (lot 2, Day 3, AI): −2.5
- BPGM (51261_at) expression change (lot 2, Day 3, AI): −2.5
- CBLB 514_at expression change (lot 2, Day 3, AI): −4.6
- CRABP-II 1057_at expression change (lot 2, Day 3, AI): −4.7
- CRABP-II 41783_at expression change (lot 2, Day 3, AI): −5.4
- DHCR24 (74557_s_at) expression change (lot 2, Day 3, AI): −2.1
- DKFZp434K1210 44682_at expression change (lot 2, Day 3, AI): −2.9
- DREV1 (63813_at) expression change (lot 2, Day 3, AI): −2.1
- DSC3a, b 47119_at expression change (lot 2, Day 3, AI): −2.2
- EIF4EBP1 (54152_at) expression change (lot 2, Day 3, AI): −2.3
- FLJ10298 (62490_f_at) expression change (lot 2, Day 3, AI): −3.4
- FLJ10718 52072_at expression change (lot 2, Day 3, AI): −5.5
- FLJ12541 43546_at expression change (lot 2, Day 3, AI): −3.8
- FLJ20048 (49196_at) expression change (lot 2, Day 3, AI): −2.3
- FLJ20373 54030_at expression change (lot 2, Day 3, AI): −2.4
- FLJ23516 47534_at expression change (lot 2, Day 3, AI): −2.6
- GJA1 32531_at expression change (lot 2, Day 3, AI): −6.8
- GSTA3 58023 at expression change (lot 2, Day 3, AI): −5.3
- HEY1 44783_s_at expression change (lot 2, Day 3, AI): −5.4
- HIN-1 (46200_at) expression change (lot 2, Day 3, AI): −28
- HSPC195 44705_at expression change (lot 2, Day 3, AI): −2
- ID1 36619_r_at expression change (lot 2, Day 3, AI): −2.3
- IVL 36355_at expression change (lot 2, Day 3, AI): −3.6
- K1IAA1102 (64345_s_at) expression change (lot 2, Day 3, AI): −3.2
